Laboratory results as given in publication PMC9729826, “Hypoaminoacidemia underpins glucagon-mediated energy expenditure and weight loss” (Cell Reports Medicine, 2022).
Starred links: 1 amine or outer side, 2 acyl side, 3 side chain; linkers in the order of their positions; H or OH if unused. Non-standard residues stand in square brackets, D forms with d. Residues, ends and D or L forms follow the SMILES beside them. Groups on a side chain read outwards from the residue. *: point of attachment. C18 diacid = O=C(O)CCCCCCCCCCCCCCCCC(=O)*; γGlu = O=C(O)[C@H](CCC(=O)[*:2])N[*:1]; Aib = CC(C)(N)C(=O)O

How the values were obtained:
Type in all cases: in vivo, mouse
lean C57BL/6 mice [1] = assay: Hepatic gene expression 24 h after a single dose in lean mice; settings: 20 nmol/kg single s.c. dose, liver at 24 h, qPCR, n = 4/group
Method: (§1) Twelve weight-matched 12-week-old lean C57BL/6 mice were fasted for 2 h prior to a single intraperitoneal injection of 10 nmol/kg dose of G108 diluted in sterile HPLC water (pH > 7), or vehicle control alone. Tail venesection was performed at baseline, 15, 30, 60 and 120 min and blood glucose measured using a handheld GlucoRx meter. For hepatic carbohydrate and amino acid metabolism gene expression analysis, weight-matched 12-week-old lean C57BL/6 mice were subcutaneously administered with 20 nmol/kg G108 diluted in sterile HPLC water (pH > 7), or vehicle control via subcutaneous injection at 9 am (N = 8). All animals had ad libitum access to RM1 diet and water. Liver tissue was dissected at 24 h and stored at −80°C prior to hepatic gene expression analysis.
RNA was extracted from liver, muscle and BAT tissue using 1 mL TRIzol added to samples prior to homogenisation within a mechanical homogeniser for 2–3 min. Chloroform was added to each individual sample prior to gentle shaking and centrifugation at 16000 × g for 15 min. […] RNA was quantified in addition to quality assessed using a NanoDrop spectrophotometer and 1 μg of RNA was then used for the synthesis of cDNA using the iScript cDNA synthesis Kit (Bio-Rad). Quantitative polymerase chain reaction (qPCR) was then undertaken using the SYBR-Green method using KiCqStart SYBR Green primers (Merck).

C57BL/6 mice = assay: Single-dose G108 EE and plasma amino acid study in metabolic cages; settings: for plasma total amino acids after a single injection / energy expenditure after a single injection: mice on SP diet
Method: Lean 10-week-old C57BL/6 mice (N = 20) were provided ad libitum a 60 kcal% high fat diet (diet D12492, Table S2) for 10 days. They were then switched to either a standard protein high fat diet (D08091803) or a high protein high fat diet (D08091801) (N = 10/group) for 1 week prior to commencing the study. All mice were then placed into metabolic cages, individually housed, and allowed to acclimatise for 24 h. On day 2, baseline metabolic readings were obtained prior to single dose administration of 7.5 nmol/kg G108 on day 3 at 9 am. Metabolic readings were subsequently obtained over the following 48 h prior to single dose administration of 20 nmol/kg G108 on day 5. On day 8, all mice were removed from the metabolic cages and returned to their home cages. A parallel study was then carried out whereby venous blood samples were collected at baseline and daily following single dosing with either 7.5 nmol/kg or 20 nmol/kg G018. Blood samples were transferred on ice immediately for centrifugation as previously described. Samples were stored at −80°C prior to measurement of plasma total amino acids.
To measure energy expenditure, DIO mice were placed into a Comprehensive Laboratory Animal Monitoring System (CLAMS, Columbus instruments, Columbus, US). Measurement of oxygen consumption and carbon dioxide production was taken at 20 min intervals. Food intake was also measured electronically without the need to remove food. Each cohort of mice were placed into the CLAMS system with daily weighing of body weight prior to administration of the allocated treatment at 9 am. Following administration of treatment, mice were placed back into the metabolic cages with ad libitum access to their allocated diet. For studies with the low amino acid (LAA) diet in metabolic cages, animals were not removed from the metabolic cages until the end of the experiment and had ad libitum access to either standard protein or low amino acid diets. Feed efficiency was calculated as mg body weight change per kJ consumed.
(§2) Plasma total amino acids were measured using fluorometric-based ELISA kits as described (MAK002, Sigma-Aldrich, Ab65347, Abcam). Plasma FGF21 was measured using a fluorescent based ELISA kit (ab229382, Abcam). Plasma triglyceride, cholesterol and leptin were measured using ELISA kits (ab65336, ab65390, ab199082, Abcam). Individual amino acids were measured using Gas Chromatography/Mass Spectrometry (WellChild laboratory, Evelina Children’s Hospital, St Thomas’s Hospital, London).

lean C57BL/6 mice [2] = assay: Chronic low-dose (5 nmol/kg) G108 study in lean mice; settings: 5 nmol/kg s.c. daily
Method: For the low-dose G108 (5 nmol/kg) study, C57BL/6 mice matched for weight and age (14-week-old, N = 14) were single housed and split into two treatment groups (N = 7/group). All mice were subcutaneously administered with the allocated treatment daily at 9 am for 21 days. Mice were administered with vehicle control (HPLC water) or 5 nmol/kg G108 (diluted in sterile HPLC water). All mice had ad libitum access to a standard protein diet containing 20 kcal% protein (diet D11112201) (Table S2). Food intake and body weight were measured daily prior to treatment each day. EchoMRI analysis was carried out at baseline and days 7, 14 and 21. Tail venesection was carried out on day 7 of study, pre- and 4 h post treatment dose. Blood samples were immediately transferred on ice, centrifuged at 2800 × g for 10 min prior to plasma total amino acid analysis. Forelimb grip strength testing was performed at baseline, day 14 and day 21. On day 21, following a 4 h fast, mice were culled, and the following muscle groups dissected and weighed: quadriceps, gastrocnemius, soleus, tibialis anterior, extensor digitorum longus.
Food intake was measured daily using a dedicated weighing scale and topped up accordingly. Body weight was recorded at 9 am daily or every 48 h using the same weighing scale. Body composition was measured using an EchoMRI analyser at various timepoints during chronic studies. Body composition measurements were taken on the same time of day to reduce intra-animal variability. Animals were placed in a transparent cylindrical Perspex tube and both ends secured with Perspex clips. The tubes containing the animal was then carefully placed into the MRI machine (EchoMRI −100H analyser, EchoMRI). Each scan lasted approximately 90 s where lean mass and fat mass were recorded in grams. Following the scan, the mice were removed from the Perspex tube and returned to their respective cages.
A grip strength meter (Bioseb, France) was used to measure grip strength. […] The maximum force, measured in g was recorded. Four consecutive measurements were made with a 1 min rest interval. An average of measurements was taken for each timepoint prior to subsequent analysis.
as §2

lean C57BL/6 mice [3] = assay: Blood glucose after a single dose in lean mice; settings: 10 nmol/kg single intraperitoneal injection, up to 2 h, n = 6/group
Method: as §1

Question: With `CC[C@H](C)[C@H](NC(=O)[C@H](Cc1ccccc1)NC(=O)[C@H](CCC(=O)O)NC(=O)[C@H](CCC(N)=O)NC(=O)[C@H](C)NC(=O)[C@H](CCCNC(=N)N)NC(=O)[C@H](CCCCN)NC(=O)[C@H](C)NC(=O)[C@H](CC(=O)O)NC(=O)[C@H](CC(C)C)NC(=O)[C@H](Cc1ccc(O)cc1)NC(=O)[C@H](CCCNC(=N)N)NC(=O)[C@H](CO)NC(=O)[C@H](Cc1ccc(O)cc1)NC(=O)[C@H](CC(=O)O)NC(=O)[C@H](CO)NC(=O)[C@@H](NC(=O)[C@H](Cc1ccccc1)NC(=O)[C@@H](NC(=O)CNC(=O)[C@H](Cc1c[nH]cn1)NC(=O)C(C)(C)NC(=O)[C@@H](N)Cc1c[nH]cn1)[C@@H](C)O)[C@@H](C)O)C(=O)N[C@@H](CCC(=O)O)C(=O)N[C@@H](Cc1c[nH]c2ccccc12)C(=O)N[C@@H](CC(C)C)C(=O)N[C@@H](CC(C)C)C(=O)N[C@@H](CCC(N)=O)C(=O)N[C@@H](CO)C(=O)N[C@@H](Cc1c[nH]cn1)C(=O)N[C@@H](Cc1c[nH]cn1)C(=O)N[C@@H](CCC(N)=O)C(=O)N[C@@H](Cc1c[nH]cn1)C(=O)N[C@@H](Cc1c[nH]cn1)C(=O)N1CCC[C@H]1C(=O)N[C@@H](CO)C(=O)N1CCC[C@H]1C(=O)N1CCC[C@H]1C(=O)N1CCC[C@H]1C(=O)N[C@@H](CCCCNC(=O)[C@H](CC(N)=O)NC(=O)CC[C@H](NC(=O)CCCCCCCCCCCCCCCCC(=O)O)C(=O)O)C(N)=O` [Peptide G108] (H-H[Aib]HGTFTSDYSRYLDAKRAQEFIEWLLQSHHQHHPSPPPK([Asn-γGlu-C18 diacid])-NH2; N-terminus and C-terminus assumed) as the molecule, how does the “expression of hepatic amino acid catabolism (urea cycle) genes” value (lean C57BL/6 mice [1]) read?
Answer: Its value is “increased the expression of a number of genes involved in amino acid catabolism”.

Question: And the “expression of hepatic gluconeogenic enzymes” value (lean C57BL/6 mice [1])?
Answer: Its value is “increased the expression of hepatic gluconeogenic enzymes”.

Question: What about the “plasma total amino acids after a single injection” value (C57BL/6 mice; single 7.5 nmol/kg dose, n = 10/group) of the same molecule?
Answer: Its value is “transient reduction in plasma amino acids”.

Question: And the “energy expenditure after a single injection” value (C57BL/6 mice; single 7.5 nmol/kg dose, up to 48 h, n = 10/group)?
Answer: Its value is “trend toward increased EE”.

Question: What about the “plasma total amino acids after a single injection” value (C57BL/6 mice; single 20 nmol/kg dose, n = 9-10/group) of the same molecule?
Answer: Its value is “sustained reduction in plasma amino acids”.

Question: What about the “energy expenditure after a single injection” value (C57BL/6 mice; single 20 nmol/kg dose, up to 72 h, n = 9-10/group) of the same molecule?
Answer: The value was “significantly increased EE response”.

Question: And the “hypoaminoacidemia and EE in mice fed the HP diet” value (C57BL/6 mice; single 7.5 and 20 nmol/kg doses, HP diet)?
Answer: The value was “protected against G108-stimulated hypoaminoacidemia and EE at both doses”.

Question: What about the “body composition (lean mass, EchoMRI)” value (lean C57BL/6 mice [2]; 21 days, n = 7/group) of the same molecule?
Answer: Its value is “reduced lean mass”.

Question: What about the “body weight gain compared with vehicle” value (lean C57BL/6 mice [2]; 21 days, n = 7/group) of the same molecule?
Answer: Its value is “prevented weight gain”.

Question: What about the “plasma total amino acids” value (lean C57BL/6 mice [2]; day 7, n = 7/group) of the same molecule?
Answer: The value was “sustained reduction in plasma amino acids”.

Question: What about the “weight of the quadriceps and gastrocnemius muscles” value (lean C57BL/6 mice [2]; day 21, n = 7/group) of the same molecule?
Answer: Its value is “reduced”.

Question: And the forelimb grip strength (lean C57BL/6 mice [2]; days 14 and 21, n = 7/group)?
Answer: Its forelimb grip strength is “reduced”.

Question: And the “blood glucose after a single dose” value (lean C57BL/6 mice [3])?
Answer: The value was “acute increase in blood glucose”.
